Where two headings read alike, the source gives them in different places.

In this test the target is T1, Recombinant human cathepsin A (Homo sapiens, UniProt P10619).
T1 construct: Recombinant human cathepsin A (residues 29-480, with a C-terminal 10-His tag); 10-His (C); purchased R&D Systems 1049-SE
T1 sequence (P10619 29-312 limits assumed): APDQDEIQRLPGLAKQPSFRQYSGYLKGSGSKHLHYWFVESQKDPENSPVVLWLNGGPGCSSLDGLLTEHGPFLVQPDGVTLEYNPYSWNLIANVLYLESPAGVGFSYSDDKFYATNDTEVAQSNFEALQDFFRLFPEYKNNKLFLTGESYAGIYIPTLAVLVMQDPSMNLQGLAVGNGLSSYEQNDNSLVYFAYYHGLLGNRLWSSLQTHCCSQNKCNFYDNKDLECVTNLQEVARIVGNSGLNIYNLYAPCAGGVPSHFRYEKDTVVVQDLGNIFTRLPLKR
T1 sequence (P10619 327-480 limits assumed): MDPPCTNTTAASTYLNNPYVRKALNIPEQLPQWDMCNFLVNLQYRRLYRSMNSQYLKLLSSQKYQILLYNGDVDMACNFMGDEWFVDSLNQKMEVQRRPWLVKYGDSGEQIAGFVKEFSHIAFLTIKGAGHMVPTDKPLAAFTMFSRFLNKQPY
Kind of test: Cathepsin A inhibitory activity. It counts as biochemical. The procedure: a) Cathepsin A Inhibitory Activity
Recombinant human cathepsin A (residues 29-480, with a C-terminal 10-His tag; R&D Systems, #1049-SE) was proteolytically activated with recombinant human cathepsin L (R&D Systems, #952-CY). Briefly, cathepsin A was incubated at 10 μg/ml with cathepsin L at 1 μg/ml in activation buffer (25 mM 2-(morpholin-4-yl)-ethanesulfonic acid (MES), pH 6.0, containing 5 mM dithiothreitol (DTT)) for 15 min at 37° C. Cathepsin L activity was then stopped by the addition of the cysteine protease inhibitor E-64 (N-(trans-epoxysuccinyl)-L-leucine-4-guanidinobutylamide; Sigma-Aldrich, #E3132; dissolved in activation buffer/DMSO) to a final concentration of 10 μM.
The activated cathepsin A was diluted in assay buffer (25 mM MES, pH 5.5, containing 5 mM DTT) and mixed with the test compound (dissolved in assay buffer containing (v/v) 3% DMSO) or, in the control experiments, with the vehicle in a multiple assay plate. After incubation for 15 min at room temperature, as substrate then bradykinin carrying an N-terminal®Bodipy FL (4,4-difluoro-5,7-dimethyl-4-bora-3a,4a-diaza-s-indacene-3-propionyl) label (JPT Peptide Technologies GmbH; dissolved in assay buffer) was added to the mixture. The final concentration of cathepsin A was 833 ng/ml and the final concentration of labeled bradykinin 2 μM. After incubation for 15 min at room temperature the reaction was stopped by the addition of stop buffer (130 mM 2-(4-(2-hydroxy-ethyl)-piperazin-1-yl)-ethanesulfonic acid, pH 7.4, containing (v/v) 0.013% Triton X-100, 0.13% Coating Reagent 3 (Caliper Life Sciences), 6.5% DMSO and 20 μM ebelactone B (Sigma, # E0886)).
Uncleaved substrate and product were then separated by a microfluidic capillary electrophoresis on a LabChip® 3000 Drug Discovery System (12-Sipper-Chip; Caliper Life Sciences) and quantified by determination of the respective peak areas. Substrate turnover was calculated by dividing product peak area by the sum of substrate and product peak areas, and the enzyme activity and the inhibitory effect of the test compound thus quantified. From the percentage of inhibition of cathepsin A activity observed with the test compound at several concentrations, the inhibitory concentration IC50, i.e. the concentration which effects 50% inhibition of enzyme activity was, calculated.

Setting [1] is: read-out: Activity (2): Cathepsin A inhibitory activity (IC50 class).
[2] abbreviates: recombinant human cathepsin A 833 ng/ml, Bodipy FL-labeled bradykinin 2 μM, pH 5.5, read-out: CATH-A IC50.
[3] abbreviates: read-out: Activity (2): Cathepsin A inhibitory activity, IC50 class.

Turning to `Cc1ccccc1[C@H](CC(=O)O)NC(=O)c1cc(OC[C@H](O)C(C)(C)C)n(-c2ccccc2F)n1` (single isomer, unassigned) [Example 745], the concentration for half-maximal inhibition (IC50) was less than 100 nM under setting [1] and 4.7 nM under setting [2].

Take `Cc1ccccc1[C@H](CC(=O)O)NC(=O)c1cc(OC[C@](C)(O)C(C)(C)C)n(-c2ccccc2F)n1` (single isomer, unassigned) [Example 747]: the IC50 is less than 100 nM under setting [1] and 14.7 nM under setting [2].

For the molecule `Cc1ccccc1[C@H](CC(=O)O)NC(=O)c1cc(OC[C@@](C)(O)C(C)(C)C)n(-c2ccccc2F)n1` (single isomer, unassigned) [Example 748], the IC50 is, setting by setting: under setting [1], less than 100 nM; under setting [2], 2.56 nM.

For `CC(C)(C)[C@@](C)(O)COc1cc(C(=O)N[C@@H](CC(=O)O)c2ccccc2Cl)nn1-c1ccccc1F` (single isomer, unassigned) [Example 758], the IC50 is less than 100 nM under setting [1] and 17.4 nM under setting [2].

As for `CC(C)(C)[C@](C)(O)COc1cc(C(=O)N[C@@H](CC(=O)O)c2ccccc2Cl)nn1-c1ccccc1F` (single isomer, unassigned) [Example 759], the IC50 under setting [1] is less than 100 nM.

In the case of `Cc1ccccc1[C@H](CC(=O)O)NC(=O)c1cc(OC[C@H](O)C2CC2)n(-c2ccccc2F)n1` (single isomer, unassigned) [Example 760], the IC50 under setting [1] was less than 100 nM.

Take `Cc1ccccc1[C@H](CC(=O)O)NC(=O)c1cc(OC[C@@H](O)C2CC2)n(-c2ccccc2F)n1` (single isomer, unassigned) [Example 761]: the IC50 under setting [1] is less than 100 nM.

For the molecule `Cc1ccccc1[C@H](CC(=O)O)NC(=O)c1cc(OC[C@](C)(O)C2CC2)n(-c2ccccc2F)n1` (single isomer, unassigned) [Example 763], the IC50 under setting [1] was less than 100 nM.

For `Cc1ccccc1[C@H](CC(=O)O)NC(=O)c1cc(OC[C@@](C)(O)C2CC2)n(-c2ccccc2F)n1` (single isomer, unassigned) [Example 764], under setting [1], the IC50 was less than 100 nM.

Regarding `Cc1ccccc1[C@H](CC(=O)O)NC(=O)c1cc(OC[C@@](C)(O)C(C)C)n(-c2ccccc2F)n1` (single isomer, unassigned) [Example 833], under setting [3], the IC50 lay within 1000 to 30000 nM.

As to `Cc1ccc(C)c(-n2nc(C(=O)NC(CC(=O)O)c3ccc(F)cc3)cc2O)c1` (stereo not drawn) [Example 1], the concentration for half-maximal inhibition (IC50) under setting [3] was 1000 to 30000 nM.

Regarding `CCCC(CC(=O)O)NC(=O)c1cc(O)n(-c2ccccc2)n1` (stereo not drawn) [Example 2], the IC50 under setting [3] was 1000 to 30000 nM.

Take `COc1ccc(C(CC(=O)O)NC(=O)c2cc(O)n(-c3ccccc3)n2)cc1` (stereo not drawn) [Example 3, 3-[(5-Hydroxy-1-phenyl-1H-pyrazole-3-carbonyl)-amino]-3-(4-methoxy-phenyl)-propionic acid]: under setting [3], the IC50 fell in the range of 100 to 1000 nM.

As for `CC(C)(CC(=O)O)NC(=O)c1cc(O)n(-c2ccccc2)n1` [Example 4], the IC50 under setting [3] fell in the range of 1000 to 30000 nM.

On to `O=C(O)CC1(NC(=O)c2cc(O)n(-c3ccccc3)n2)CCCC1` [Example 5], for which the half-inhibitory concentration (IC50) under setting [3] was in the range of 1000 to 30000 nM.

For the molecule `CC(C)(C)Oc1cccc(C(CC(=O)O)NC(=O)c2cc(O)n(-c3ccccc3)n2)c1` (stereo not drawn) [Example 6], the IC50 under setting [3] was in the range of 1000 to 30000 nM.

On to `Cc1ccc(C)c(-n2nc(C(=O)NC(CC(=O)O)c3cccc(OC(C)(C)C)c3)cc2O)c1` (stereo not drawn) [Example 7, 3-(3-tert-Butoxy-phenyl)-3-{[1-(2,5-dimethyl-phenyl)-5-hydroxy-1H-pyrazole-3-carbonyl]-amino}-propionic acid], for which the IC50 under setting [3] is 1000 to 30000 nM.

In the case of `Cc1ccc(C)c(-n2nc(C(=O)NC(C)(C)CC(=O)O)cc2O)c1` [Example 8], the IC50 under setting [3] lay within 1000 to 30000 nM.

`COc1cccc(C(CC(=O)O)NC(=O)c2cc(O)n(-c3ccccc3)n2)c1` (stereo not drawn) [Example 9]: the IC50 under setting [3] lay within 100 to 1000 nM.

On to `O=C(O)CC(NC(=O)c1cc(O)n(-c2ccccc2)n1)c1cccc(Cl)c1` (stereo not drawn) [Example 10], for which, under setting [3], the IC50 was 100 to 1000 nM.

As for `COc1ccc(C(CC(=O)O)NC(=O)c2cc(O)n(-c3ccccc3)n2)cc1OC` (stereo not drawn) [Example 11], the IC50 under setting [3] fell in the range of 1000 to 30000 nM.

As to `O=C(O)CC(NC(=O)c1cc(O)n(-c2ccccc2)n1)c1ccc(OC(F)(F)F)cc1` (stereo not drawn) [Example 12], under setting [3], the IC50 was in the range of 100 to 1000 nM.

On to `CC(C)C(CC(=O)O)NC(=O)c1cc(O)n(-c2ccccc2)n1` (stereo not drawn) [Example 13], for which the IC50 under setting [3] fell in the range of 1000 to 30000 nM.

Turning to `CCCCC(CC(=O)O)NC(=O)c1cc(O)n(-c2ccccc2)n1` (stereo not drawn) [Example 14], the half-inhibitory concentration (IC50) under setting [3] is 100 to 1000 nM.

For `O=C(O)CC(CCc1ccccc1)NC(=O)c1cc(O)n(-c2ccccc2)n1` (stereo not drawn) [Example 15], the IC50 under setting [3] was 1000 to 30000 nM.

As for `O=C(O)CC(NC(=O)c1cc(O)n(-c2ccccc2)n1)c1cccnc1` (stereo not drawn) [Example 16], under setting [3], the IC50 lay in the range of 100 to 1000 nM.

For `O=C(O)CC(NC(=O)c1cc(O)n(-c2ccccc2)n1)C1CC1` (stereo not drawn) [Example 17], under setting [3], the 50% inhibitory concentration (IC50) was in the range of 1000 to 30000 nM.

On to `O=C(O)CC(NC(=O)c1cc(O)n(-c2ccccc2)n1)C1CCCCC1` (stereo not drawn) [Example 18], for which the IC50 under setting [3] fell in the range of 100 to 1000 nM.

With `CC(C)CC(CC(=O)O)NC(=O)c1cc(O)n(-c2ccccc2)n1` (stereo not drawn) [Example 19], the half-maximal inhibitory concentration (IC50) under setting [3] was in the range of 100 to 1000 nM.

Regarding `O=C(O)CC(NC(=O)c1cc(O)n(-c2ccccc2)n1)c1ccccc1Cl` (stereo not drawn) [Example 20], the IC50 under setting [3] was 100 to 1000 nM.

In the case of `Cc1ccccc1C(CC(=O)O)NC(=O)c1cc(O)n(-c2ccccc2)n1` (stereo not drawn) [Example 21], the IC50 under setting [3] is 100 to 1000 nM.

`CCc1ccc(C(CC(=O)O)NC(=O)c2cc(O)n(-c3ccccc3)n2)cc1` (stereo not drawn) [Example 22]: the IC50 under setting [3] was 100 to 1000 nM.

On to `CC(C)(C)Oc1ccc(C(CC(=O)O)NC(=O)c2cc(O)n(-c3ccccc3)n2)cc1` (stereo not drawn) [Example 23], for which the IC50 under setting [3] was in the range of 1000 to 30000 nM.

Regarding `CC(C)c1ccc(C(CC(=O)O)NC(=O)c2cc(O)n(-c3ccccc3)n2)cc1` (stereo not drawn) [Example 24], under setting [3], the IC50 fell in the range of 100 to 1000 nM.

As for `COc1ccc(C(CC(=O)O)NC(=O)c2cc(O)n(-c3ccccc3)n2)c(C)c1C` (stereo not drawn) [Example 25], the 50% inhibitory concentration (IC50) under setting [3] lay in the range of 1000 to 30000 nM.

Take `CCCC(CC(=O)O)NC(=O)c1cc(O)n(-c2cc(C)ccc2C)n1` (stereo not drawn) [Example 26]: the concentration for half-maximal inhibition (IC50) under setting [3] is 1000 to 30000 nM.

With `COc1ccc(C(CC(=O)O)NC(=O)c2cc(O)n(-c3cc(C)ccc3C)n2)cc1` (stereo not drawn) [Example 27], the IC50 under setting [3] was 1000 to 30000 nM.

Consider `COc1cccc(C(CC(=O)O)NC(=O)c2cc(O)n(-c3cc(C)ccc3C)n2)c1` (stereo not drawn) [Example 28], for which the IC50 under setting [3] lay in the range of 1000 to 30000 nM.

With `Cc1ccc(C)c(-n2nc(C(=O)NC(CC(=O)O)c3cccc(Cl)c3)cc2O)c1` (stereo not drawn) [Example 29], the IC50 under setting [3] was 1000 to 30000 nM.

For `COc1ccc(C(CC(=O)O)NC(=O)c2cc(O)n(-c3cc(C)ccc3C)n2)cc1OC` (stereo not drawn) [Example 30], the half-inhibitory concentration (IC50) under setting [3] fell in the range of 1000 to 30000 nM.

For `Cc1ccc(C)c(-n2nc(C(=O)NC(CC(=O)O)c3ccc(OC(F)(F)F)cc3)cc2O)c1` (stereo not drawn) [Example 31], the IC50 under setting [3] is 1000 to 30000 nM.

Regarding `Cc1ccc(C)c(-n2nc(C(=O)NC(CC(=O)O)C(C)C)cc2O)c1` (stereo not drawn) [Example 32], under setting [3], the IC50 lay within 1000 to 30000 nM.

Turning to `CCCCC(CC(=O)O)NC(=O)c1cc(O)n(-c2cc(C)ccc2C)n1` (stereo not drawn) [Example 33], the IC50 under setting [3] is 1000 to 30000 nM.

For `Cc1ccc(C)c(-n2nc(C(=O)NC(CCc3ccccc3)CC(=O)O)cc2O)c1` (stereo not drawn) [Example 34], the IC50 under setting [3] lay in the range of 1000 to 30000 nM.

With `Cc1ccc(C)c(-n2nc(C(=O)NC(CC(=O)O)c3cccnc3)cc2O)c1` (stereo not drawn) [Example 35], the IC50 under setting [3] fell in the range of 1000 to 30000 nM.

Turning to `Cc1ccc(C)c(-n2nc(C(=O)NC(CC(=O)O)C3CC3)cc2O)c1` (stereo not drawn) [Example 36], the IC50 under setting [3] fell in the range of 1000 to 30000 nM.

With `Cc1ccc(C)c(-n2nc(C(=O)NC(CC(=O)O)C3CCCCC3)cc2O)c1` (stereo not drawn) [Example 37], the IC50 under setting [3] fell in the range of 1000 to 30000 nM.

In the case of `Cc1ccc(C)c(-n2nc(C(=O)NC(CC(=O)O)CC(C)C)cc2O)c1` (stereo not drawn) [Example 38], the IC50 under setting [3] fell in the range of 1000 to 30000 nM.

On to `Cc1ccc(C)c(-n2nc(C(=O)NC(CC(=O)O)c3ccccc3Cl)cc2O)c1` (stereo not drawn) [Example 39], for which the IC50 under setting [3] lay within 1000 to 30000 nM.

For `Cc1ccc(C)c(-n2nc(C(=O)NC(CC(=O)O)c3ccccc3C)cc2O)c1` (stereo not drawn) [Example 40], the IC50 under setting [3] is 100 to 1000 nM.

The record behind these values is patent US8664257B2, “Oxygen-substituted 3-heteroaroylamino-propionic acid derivatives and their use as pharmaceuticals” (Sanofi, priority 2010, dated 2014).
